According to patent US11154057B2, “Use of nootkatone to treat mosquito infestations” (EVOLVA SA, priority 2016, dated 2021):

Tests used:
[1] = tested on: Adult Aedes aegypti mosquitoes; experiment: Prevention of adult mosquito egg laying on treated filter papers; fecundity and adult mortality (Example No. 8); assay type: in vivo; conditions: for Adult mosquito mortality: Affected, mean / Adult mosquito mortality: Dead, mean / Adult mosquito mortality: Knockdown, mean: 1% NK treated filter paper, cage of 100 mosquitoes; for Percent fecundity reduction, average: filter paper treated with 1 mL, dried, versus untreated paper in the same cage of 100 blood fed mosquitoes, triplicate
Description: Adult Aedes aegypti mosquitoes from a laboratory were blood fed and mated. Testing was conducted 2 days after administration of the blood meal to ensure that females were ready to oviposit.
White filter paper was cut to fit Petri dishes 9 cm in diameter, and each paper was treated with 1 mL of ethanol, 1% nootkatone, Formulation ECS-F-#605, or Formulation ECS-F_#607 (see Table No. 5). The filter papers were allowed to dry completely, and two Petri dishes were added to each cage of 100 blood fed mosquitoes, one treated, and one untreated control. A few milliliters of water was added to each Petri dish to provide a suitable egg laying site. […] Each treatment was tested in triplicate.
Female mosquitoes lay a high density of eggs (black spots) on suitable egg laying substrates, such as white filter paper. It was anticipated that either adult females would be repelled from egg laying sites that were treated with nootkatone, or that they would attempt to land and be poisoned by contacting nootkatone on the water surface. The rate of egg laying on the treated surface and the control surface, the presence of any adults found dead on the surface, and the overall mortality rate on a daily basis were recorded, and the average and standard error were calculated versus the untreated controls. […] An unexpected result was that filter papers treated with ethanol alone had 24% more eggs laid than the average of the untreated filter papers in the same cages. […] Photographs of representative filter papers are shown in FIG. 15, 1% nootkatone treatment (left), ethanol-only control (right).

[2] = tested on: 3rd and 4th instar larvae; experiment: Duration of protection from larvae, Method 2: individual pre-treated beakers used once (Example No. 4); assay type: in vivo; conditions: for larvae mortality rates: through one week of treatment
Description: Method 2: Clean, glass 600 mL beakers were set up as test containers (such that the surface area of water to be treated was 54 cm^2), and were treated with 1 mL of 1% or 3% nootkatone in ethanol (v/v), or 1 mL of ethanol alone, to achieve a final concentration of 0.01% or 0.03% nootkatone (v/v), respectively. Beakers were lightly covered with Kimwipes to prevent contamination, and to reduce evaporation. Beakers treated with 1 mL of 100% ethanol were used as controls. Four cohorts of 25 3rd and 4th instar larvae were added to individual beakers per day, 3-14 days after treatment with nootkatone, and mortality of larvae was recorded 24 and 48 hours after addition of larvae to beakers.
For the experimental data shown in FIGS. 5-7, the method used included addition and removal of water, and potentially, removal of nootkatone, on each succeeding day. In a new experiment, individual beakers were set up in advance, so that all beakers were used one and only one time to test the longevity of nootkatone, with the only possible loss due to evaporation.
In a separate experiment using the same setup, nootkatone-treated beakers were held for two weeks prior to addition of larvae. Due to the extended time delay, more than 50% of the original liquid volume had evaporated. To avoid having a potentially higher concentration of nootkatone than the desired 0.03%, sterile water was added to bring the total volume back to 100 mL before larval cohorts were added.

C=C(C)[C@@H]1CCC2=CC(=O)C[C@@H](C)[C@]2(C)C1 [Nootkatone, nootkatone]
Adult mosquito mortality: Affected, mean ([1]; 1 day post-exposure): 6.7 per cage | Adult mosquito mortality: Dead, mean ([1]; 1 day post-exposure): 6.7 per cage | Adult mosquito mortality: Knockdown, mean ([1]; 1 day post-exposure): 0.0 per cage | Adult mosquito mortality: Affected, mean ([1]; 2 days post-exposure): 10.7 per cage | Adult mosquito mortality: Dead, mean ([1]; 2 days post-exposure): 10.7 per cage | Adult mosquito mortality: Knockdown, mean ([1]; 2 days post-exposure): 0.0 per cage | total eggs laid on treated papers in 3 cages ([1]; 1% nootkatone in ethanol, versus 700-1100 eggs per cage on untreated papers): 2 eggs | Percent fecundity reduction, average [1]: 99% | Percent fecundity reduction, average ([1]; listed as NK): 99.9% | larvae mortality rates ([2]; 0.01% nootkatone (v/v), twenty-four hours of exposure, FIG. 8): over 80% | killing at 24 hours ([2]; 0.01% nootkatone, larvae added 3 days after water treatment, FIG. 8): 98% | killing at 24 hours ([2]; 0.01% nootkatone, larvae added 7 days after water treatment, FIG. 8): 81% | larval mortality ([2]; 0.01% nootkatone, scored 48 hours after addition of larvae, 3-7 days after water treatment, FIG. 9): 100% | nootkatone killing duration ([2]; 0.03% concentration): at least two weeks | larvae killed within 24 hours ([2]; 0.03% nootkatone, beakers held two weeks before larvae, volume restored to 100 mL, FIG. 10): 100% | larvae mortality rates ([2]; 0.03% nootkatone, forty-eight hours of exposure, FIG. 9): 100% | larvae killed within 24 hours ([2]; 0.03% nootkatone, larvae added 3-7 days after water treatment, FIG. 8): 100%
